Entries after “also recorded” stand apart in the source; their conditions may differ.
Assays:
DHFR in MDA-MB-468 cells = test system: T1, DHFR in MDA-MB-468 cells; experiment: DHFR accumulation assay (Western blot); assay type: cell-based, Human; details: for Fold increase in DHFR levels: 24 h
T1 construct: reactions containing 55 μg MDA-MB-468 lysate; endogenous in cells; host or cells: MDA-MB-468
Experimental: Trypsinized MDA-MB-468 cells were seeded into 6-well plates at a density of 300,000 cells per 2 mL of media and allowed to adhere for 24 h. […] The final concentration of DMSO in each well was 1%. A DMSO-only control was also performed on each individual plate. Cells were then trypsinized, harvested by centrifugation at 200× g for 5 min at 4 °C, and washed once with PBS/PIC. Cell pellets were flash frozen using an ethanol/dry ice bath and stored at −80 °C prior to lysis. Each cell pellet was lysed as described above using 50 μL PBS/PIC per cell pellet. Samples were then analyzed by Western blot, as described below, using 30 μg lysate per lane. Band intensities of DHFR were normalized to the loading control SOD1 via densitometry using ImageJ (Fiji), and each DHFR band was normalized to the DMSO control. Fold-change in DHFR band intensity was plotted against inhibitor concentration (μM). Each experiment was performed two separate times as individual biological replicates (n = 2).
Proteins were electrophoretically separated on a 10% gel, and proteins were transferred to a methanol-activated PVDF membrane using the Trans-Blot Turbo transfer system (Bio-Rad) for 7 min at 1.3 A and 25 V in Trans-Blot Turbo transfer buffer (Bio-Rad). Membranes were blocked with 5% skim milk w/v in TBS-T (20 mM Tris, 150 mM NaCl, 0.05% Tween-20) for 1 h at room temperature. […] The horseradish peroxidase (HRP)-linked anti-mouse IgG secondary antibody (NA931, Cytiva; 1:3000) was added for 1 h at room temperature in 5% skim milk w/v in TBS-T. Signal was detected by adding Immobilon Forte Western HRP Substrate (Millipore), and chemiluminescence was captured on a Sapphire Biomolecular Imager (Azure Biosystems). Band densities were determined using ImageJ (Fiji). The band intensity of DHFR was normalized to the thermostable loading control SOD1 [22].

MDA-MB-231 cells = experiment: LC/MS-based metabolite profiling; assay type: cell-based, Human; details: 24 h; for AICAR levels with FA treatment / Orotate levels with FA supplementation: 10 μM + 300 μg/mL FA; for AICAR levels / Orotate levels / UDP level: 10 μM; for AICAR levels / Orotate levels: inhibitor alone; for UDP level: inhibitor alone versus DMSO
Experimental: For characterization by mass spectrometry, MDA-MB-231 cells were seeded at a density of 3 × 10^5 cells per well in 6-well plates. […] DMSO only and DMSO + folinic acid controls were also performed. Per condition, biological quadruplicates of approximately one million cells were harvested, washed briefly with 1 mL of 0.9% NaCl (prepared in LC/MS-grade water Fisher Scientific W6500), and extracted in 500 μL prechilled extraction buffer (80% LC/MS-grade methanol, 20% 125 mM ammonium acetate, 12.5 mM sodium ascorbate prepared in LC/MS-grade water and supplemented with aminopterin (catalog no.: 16.330; Schircks Laboratories) and isotopically labeled internal standards (17 amino acids and reduced glutathione [Cambridge Isotope Laboratories; MSK- A2-1.2 and CNLM-6245-10])) using a cell scraper. After centrifugation for 10 min, 4 °C, at maximum speed on a benchtop centrifuge (Eppendorf), the cleared supernatant was transferred to a new tube and dried using a nitrogen dryer (Reacti-Vap™ Evaporator, Thermo Fisher Scientific, TS-18826) while on ice. Once the drying process was completed, samples were reconstituted in 50 µL QReSS water (Cambridge Isotope Laboratories, MSK-QRESS-KIT) by brief sonication in a 4 °C water bath. Extracted metabolites were spun for 3 min, 4 °C, at maximum speed on a bench-top centrifuge, and cleared supernatant was transferred to LC/MS microvials (National Scientific, C5000-45B). Three microliters of each sample were pooled and serially diluted 3- and 10-fold to be used as quality controls throughout the run of each batch. Unlabeled QReSS metabolites (Cambridge Isotope Laboratories, MSK-QReSS-US-KIT) and unlabeled amino acid mix standard (Cambridge Isotope Laboratories, MSK-A2-US-1.2) were also included in the run to ensure high-quality metabolomics results.
One microliter (equivalent to 2 × 10^4 cells) of the reconstituted sample was injected into a ZIC-pHILIC 150 × 2.1 mm (5 µm particle size) column (EMD Millipore) operated on a Vanquish™ Flex UHPLC Systems (Thermo Fisher Scientific, San Jose, CA, USA). Chromatographic separation was achieved using the following conditions: buffer A was acetonitrile; buffer B was 20 mM ammonium carbonate, 0.1% ammonium hydroxide. Gradient conditions were: linear gradient from 20% to 80% B; 20–20.5 min: from 80% to 20% B; 20.5–28 min: hold at 20% B. The column oven and autosampler tray were held at 25 °C and 4 °C, respectively.
Mass spectrometry data acquisition was performed using a QExactive benchtop orbitrap mass spectrometer equipped with an Ion Max source and a HESI II probe (Thermo Fisher Scientific, San Jose, CA, USA) and was performed in positive and negative ionization mode in a range of m/z = 70–1000, with the resolution set at 70,000, the AGC target at 1 × 10^6, and the maximum injection time (Max IT) at 20 msec. For nucleotide tSIM scans, the resolution was set at 70,000, the AGC target was 1 × 10^5, and the max IT was 100 msec.
Manual curation and integration of chromatographic peaks were performed with TraceFinder 4.1 (Thermo Fisher Scientific, Waltham, MA, USA) using a 5 ppm mass tolerance and referencing an in-house library of chemical standards. Data from TraceFinder were further consolidated and normalized with an in-house R script: (https://github.com/FrozenGas/KanarekLabTraceFinderRScripts/blob/main/MS_data_script_v2.4_20221018.R (accessed on 22 November 2022)). Briefly, this script performs normalization and quality control steps: (1) extracts and combines the peak areas from TraceFinder output .csvs; (2) calculates and normalizes to an averaged factor from all mean-centered chromatographic peak areas of isotopically labeled amino acids internal standards within each sample; (3) filters out low-quality metabolites based on user inputted cut-offs calculated from pool reinjections and pool dilutions; (4) calculates and normalizes for biological material amounts based on the total integrated peak area values of high-confidence metabolites. […]

| SMILES | DHFR accumulation (DHFR in MDA-MB-468 cells; MDA-MB-468, 24 h) | AICAR levels with FA treatment (MDA-MB-231 cells) | Orotate levels with FA supplementation (MDA-MB-231 cells) | AICAR levels (MDA-MB-231 cells) | Orotate levels (MDA-MB-231 cells) | UDP level (MDA-MB-231 cells) | Fold increase in DHFR levels (DHFR in MDA-MB-468 cells; MDA-MB-468, 10 nM) | Fold increase in DHFR levels (DHFR in MDA-MB-468 cells; MDA-MB-468, 1 µM) | Concentration giving notable accumulation of DHFR (DHFR in MDA-MB-468 cells; MDA-MB-468, 24 h, range 0.012–1 nM) |
| --- | --- | --- | --- | --- | --- | --- | --- | --- | --- |
| CC1(C)N=C(N)N=C(N)N1c1ccc(Cl)cc1 [Cyc, Cycloguanil] | required higher concentrations to induce DHFR accumulation; also recorded: failed to induce DHFR accumulation at low nM concentrations | returned AICAR to the same levels as vehicle controls | returned orotate to vehicle control levels | much larger increases in AICAR | decreased or statistically insignificant changes in orotate levels | significantly depleted | – | – | – |
| CCc1nc(N)nc(N)c1-c1ccc(Cl)cc1 [Pyr, Pyrimethamine] | required higher concentrations to induce DHFR accumulation | returned AICAR to the same levels as vehicle controls | returned orotate to vehicle control levels | much larger increases in AICAR | decreased or statistically insignificant changes in orotate levels | significantly depleted | – | – | – |
| CC1(C)N=C(N)N=C(N)N1c1ccc(CCCCc2ccc(S(=O)(=O)F)cc2)c(Cl)c1 [compound 127159] | – | further increased AICAR | orotate remained elevated in the presence of FA | increased slightly, yet significantly | stark increase in orotate levels | not upon treatment with MTX and 127159 alone | 10 fold | 30 fold | 0.33 nM |
